Laboratory results as given in ChEMBL document CHEMBL1152560, “Substituted 2-arylbenzothiazoles as kinase inhibitors: hit-to-lead optimization” (Bioorg Med Chem, 2009).

How the values were obtained:
[1] = target: T1, Eukaryotic elongation factor 2 kinase (Homo sapiens) (UniProt O00418); test: Residual activity of EEF2K at 1 uM by microplate scintillation counting
T1 sequence (whole entry): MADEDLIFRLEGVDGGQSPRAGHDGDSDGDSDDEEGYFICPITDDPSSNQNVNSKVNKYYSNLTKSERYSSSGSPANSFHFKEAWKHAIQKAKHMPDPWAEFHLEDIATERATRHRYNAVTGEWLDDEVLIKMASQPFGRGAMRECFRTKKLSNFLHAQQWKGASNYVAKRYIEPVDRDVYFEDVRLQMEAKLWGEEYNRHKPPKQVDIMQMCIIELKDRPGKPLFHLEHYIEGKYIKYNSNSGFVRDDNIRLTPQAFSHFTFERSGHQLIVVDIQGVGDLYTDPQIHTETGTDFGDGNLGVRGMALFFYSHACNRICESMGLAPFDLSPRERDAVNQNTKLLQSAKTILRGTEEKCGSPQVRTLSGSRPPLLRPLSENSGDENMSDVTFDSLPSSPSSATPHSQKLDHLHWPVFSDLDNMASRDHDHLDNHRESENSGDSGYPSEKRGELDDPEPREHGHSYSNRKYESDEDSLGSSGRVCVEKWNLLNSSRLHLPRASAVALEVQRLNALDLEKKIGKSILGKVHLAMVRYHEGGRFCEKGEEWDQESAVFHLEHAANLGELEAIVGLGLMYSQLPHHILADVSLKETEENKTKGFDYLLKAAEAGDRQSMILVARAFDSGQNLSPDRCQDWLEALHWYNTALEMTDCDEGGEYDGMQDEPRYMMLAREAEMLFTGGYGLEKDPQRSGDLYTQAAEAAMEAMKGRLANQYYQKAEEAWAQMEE

[2] = target: Mitogen-activated protein kinase 1 (Homo sapiens) (UniProt P28482); test: Residual activity of ERK2 at 1 uM by microplate scintillation counting
Chain of Mitogen-activated protein kinase 1 (Homo sapiens) (P28482 whole entry): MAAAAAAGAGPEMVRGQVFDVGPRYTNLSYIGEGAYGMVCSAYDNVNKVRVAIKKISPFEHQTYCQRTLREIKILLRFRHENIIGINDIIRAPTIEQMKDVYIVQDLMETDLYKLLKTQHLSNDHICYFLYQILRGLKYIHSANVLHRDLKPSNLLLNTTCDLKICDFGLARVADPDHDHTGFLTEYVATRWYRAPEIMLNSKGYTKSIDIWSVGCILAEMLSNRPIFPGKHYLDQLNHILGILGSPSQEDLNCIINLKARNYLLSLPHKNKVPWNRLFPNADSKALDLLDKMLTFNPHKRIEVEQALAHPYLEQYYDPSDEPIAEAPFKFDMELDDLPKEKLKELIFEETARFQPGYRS

[3] = target: Tyrosine-protein kinase HCK (Homo sapiens) (UniProt P08631); test: Residual activity of HCK at 0.1 uM by microplate scintillation counting
Chain of Tyrosine-protein kinase HCK (Homo sapiens) (P08631 2-526 limits assumed): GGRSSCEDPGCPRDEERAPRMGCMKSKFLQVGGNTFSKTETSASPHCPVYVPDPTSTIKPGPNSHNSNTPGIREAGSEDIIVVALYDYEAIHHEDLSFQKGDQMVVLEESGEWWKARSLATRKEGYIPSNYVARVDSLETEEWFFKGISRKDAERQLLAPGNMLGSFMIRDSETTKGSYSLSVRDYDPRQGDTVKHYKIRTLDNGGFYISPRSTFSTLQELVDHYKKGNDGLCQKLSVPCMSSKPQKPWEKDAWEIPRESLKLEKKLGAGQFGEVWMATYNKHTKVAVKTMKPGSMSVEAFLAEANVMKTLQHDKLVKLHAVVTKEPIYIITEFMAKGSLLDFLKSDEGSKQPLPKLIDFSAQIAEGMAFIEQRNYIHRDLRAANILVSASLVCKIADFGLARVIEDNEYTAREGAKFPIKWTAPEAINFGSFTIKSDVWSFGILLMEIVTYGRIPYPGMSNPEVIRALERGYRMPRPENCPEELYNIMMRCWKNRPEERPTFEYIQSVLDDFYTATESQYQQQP

[4] = target: Hepatocyte growth factor receptor (Homo sapiens) (UniProt P08581); test: Residual activity of MET at 0.1 uM by microplate scintillation counting
[5] = target: Leukocyte tyrosine kinase receptor (Homo sapiens) (UniProt P29376); test: Residual activity of LTK at 1 uM by microplate scintillation counting
Chain of Leukocyte tyrosine kinase receptor (Homo sapiens) (P29376 whole entry): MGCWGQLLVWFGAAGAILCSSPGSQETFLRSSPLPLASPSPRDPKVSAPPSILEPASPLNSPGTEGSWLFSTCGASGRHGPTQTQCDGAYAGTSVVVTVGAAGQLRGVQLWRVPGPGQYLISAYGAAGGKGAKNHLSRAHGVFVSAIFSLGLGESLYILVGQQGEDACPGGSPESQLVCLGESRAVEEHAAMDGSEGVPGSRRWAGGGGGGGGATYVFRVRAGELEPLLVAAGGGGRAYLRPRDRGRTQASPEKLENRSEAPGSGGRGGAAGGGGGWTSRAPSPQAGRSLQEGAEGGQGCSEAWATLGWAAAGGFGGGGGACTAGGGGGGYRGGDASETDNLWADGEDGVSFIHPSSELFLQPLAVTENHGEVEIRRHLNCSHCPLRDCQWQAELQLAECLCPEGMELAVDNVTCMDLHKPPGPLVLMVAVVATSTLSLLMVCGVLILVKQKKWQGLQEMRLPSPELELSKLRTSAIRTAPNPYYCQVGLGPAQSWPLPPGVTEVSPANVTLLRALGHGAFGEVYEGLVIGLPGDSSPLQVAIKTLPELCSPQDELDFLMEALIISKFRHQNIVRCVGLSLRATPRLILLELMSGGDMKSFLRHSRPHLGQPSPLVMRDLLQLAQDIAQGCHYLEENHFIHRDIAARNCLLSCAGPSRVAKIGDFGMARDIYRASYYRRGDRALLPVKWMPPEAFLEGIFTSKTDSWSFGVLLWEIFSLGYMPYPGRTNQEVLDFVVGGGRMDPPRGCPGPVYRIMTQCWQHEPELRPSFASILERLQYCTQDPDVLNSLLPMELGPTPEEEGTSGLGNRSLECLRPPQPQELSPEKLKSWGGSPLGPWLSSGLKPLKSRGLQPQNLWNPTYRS

[6] = target: T2, Lymphokine-activated killer T-cell-originated protein kinase (Homo sapiens) (UniProt Q96KB5); test: Residual activity of PBK at 1 uM by microplate scintillation counting
T2 sequence (whole entry): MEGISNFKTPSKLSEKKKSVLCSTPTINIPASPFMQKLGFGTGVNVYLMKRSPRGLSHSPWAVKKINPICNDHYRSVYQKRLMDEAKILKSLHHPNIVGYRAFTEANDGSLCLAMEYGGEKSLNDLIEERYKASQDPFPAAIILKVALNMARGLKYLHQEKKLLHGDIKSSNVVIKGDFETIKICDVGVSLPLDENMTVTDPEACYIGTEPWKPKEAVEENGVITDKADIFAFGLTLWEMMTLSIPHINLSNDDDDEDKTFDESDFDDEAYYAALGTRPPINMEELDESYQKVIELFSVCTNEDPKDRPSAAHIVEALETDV

[7] = target: Vascular endothelial growth factor receptor 3 (Homo sapiens, UniProt P35916); test: Residual activity of VEGFR3 at 1 uM by microplate scintillation counting
[8] = target: Insulin-like growth factor 1 receptor (Homo sapiens) (UniProt P08069); test: Residual activity of IGF1R at 10 uM by microplate scintillation counting
Chain of Insulin-like growth factor 1 receptor (Homo sapiens) (P08069 31-736 limits assumed): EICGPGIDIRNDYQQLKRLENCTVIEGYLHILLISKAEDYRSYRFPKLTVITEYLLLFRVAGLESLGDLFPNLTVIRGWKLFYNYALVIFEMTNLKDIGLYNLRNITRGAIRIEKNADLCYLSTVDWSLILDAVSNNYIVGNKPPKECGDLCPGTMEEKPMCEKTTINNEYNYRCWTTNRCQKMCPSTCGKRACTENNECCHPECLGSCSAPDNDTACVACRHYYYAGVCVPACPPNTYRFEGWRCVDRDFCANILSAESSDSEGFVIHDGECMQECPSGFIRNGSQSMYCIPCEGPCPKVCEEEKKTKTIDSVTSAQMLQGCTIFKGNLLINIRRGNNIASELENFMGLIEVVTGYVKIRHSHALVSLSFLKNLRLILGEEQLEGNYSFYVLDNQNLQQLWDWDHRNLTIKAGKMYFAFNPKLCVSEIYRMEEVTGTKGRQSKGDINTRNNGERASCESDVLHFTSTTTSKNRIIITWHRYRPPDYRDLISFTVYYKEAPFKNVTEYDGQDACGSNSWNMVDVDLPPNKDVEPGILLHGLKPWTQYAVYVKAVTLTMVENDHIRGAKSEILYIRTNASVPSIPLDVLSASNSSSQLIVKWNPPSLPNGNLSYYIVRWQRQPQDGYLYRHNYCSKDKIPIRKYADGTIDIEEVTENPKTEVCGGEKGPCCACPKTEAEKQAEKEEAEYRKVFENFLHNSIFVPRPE
Chain of Insulin-like growth factor 1 receptor (Homo sapiens) (P08069 741-1367 limits assumed): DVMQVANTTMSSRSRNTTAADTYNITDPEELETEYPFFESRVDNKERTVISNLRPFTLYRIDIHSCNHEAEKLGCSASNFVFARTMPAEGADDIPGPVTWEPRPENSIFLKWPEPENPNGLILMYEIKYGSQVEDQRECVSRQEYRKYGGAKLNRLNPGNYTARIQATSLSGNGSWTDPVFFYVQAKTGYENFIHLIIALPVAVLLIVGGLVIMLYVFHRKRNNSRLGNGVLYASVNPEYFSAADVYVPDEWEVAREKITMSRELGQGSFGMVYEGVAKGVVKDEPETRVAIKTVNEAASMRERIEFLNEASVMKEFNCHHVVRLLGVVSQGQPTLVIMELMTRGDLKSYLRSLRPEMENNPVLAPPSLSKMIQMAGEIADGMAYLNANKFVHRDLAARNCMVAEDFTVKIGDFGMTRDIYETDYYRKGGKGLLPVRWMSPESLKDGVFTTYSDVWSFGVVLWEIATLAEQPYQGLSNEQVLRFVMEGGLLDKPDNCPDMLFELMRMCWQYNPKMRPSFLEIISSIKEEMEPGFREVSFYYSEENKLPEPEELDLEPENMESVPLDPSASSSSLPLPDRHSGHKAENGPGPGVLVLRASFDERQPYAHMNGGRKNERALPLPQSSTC

[9] = target: T3, Inhibitor of nuclear factor kappa-B kinase subunit alpha (Homo sapiens) (UniProt O15111); test: Residual activity of IKKalpha at 10 uM by microplate scintillation counting
T3 sequence (whole entry): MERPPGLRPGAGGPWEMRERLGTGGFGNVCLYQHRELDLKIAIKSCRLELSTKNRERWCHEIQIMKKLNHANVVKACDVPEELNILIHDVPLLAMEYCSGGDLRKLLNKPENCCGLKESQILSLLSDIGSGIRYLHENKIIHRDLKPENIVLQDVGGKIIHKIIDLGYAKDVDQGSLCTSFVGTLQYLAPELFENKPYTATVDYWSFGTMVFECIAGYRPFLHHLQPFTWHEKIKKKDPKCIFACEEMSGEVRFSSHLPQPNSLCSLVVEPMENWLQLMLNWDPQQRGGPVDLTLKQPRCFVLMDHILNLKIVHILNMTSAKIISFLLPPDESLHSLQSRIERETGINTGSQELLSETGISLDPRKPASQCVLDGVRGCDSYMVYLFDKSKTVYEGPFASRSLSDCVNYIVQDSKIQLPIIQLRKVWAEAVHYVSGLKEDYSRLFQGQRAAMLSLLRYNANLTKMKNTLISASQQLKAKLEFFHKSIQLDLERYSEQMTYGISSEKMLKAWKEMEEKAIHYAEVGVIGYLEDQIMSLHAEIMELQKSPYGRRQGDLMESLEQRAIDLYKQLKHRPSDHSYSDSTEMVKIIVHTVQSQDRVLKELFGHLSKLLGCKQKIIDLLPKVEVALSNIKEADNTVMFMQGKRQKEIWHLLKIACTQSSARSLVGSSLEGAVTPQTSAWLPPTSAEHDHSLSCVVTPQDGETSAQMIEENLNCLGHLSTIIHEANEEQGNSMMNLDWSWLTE

[10] = target: Cyclin-dependent kinase 16 (Homo sapiens) (UniProt Q00536); test: Residual activity of PCTAIRE1 at 10 uM by microplate scintillation counting
Chain of Cyclin-dependent kinase 16 (Homo sapiens) (Q00536 whole entry): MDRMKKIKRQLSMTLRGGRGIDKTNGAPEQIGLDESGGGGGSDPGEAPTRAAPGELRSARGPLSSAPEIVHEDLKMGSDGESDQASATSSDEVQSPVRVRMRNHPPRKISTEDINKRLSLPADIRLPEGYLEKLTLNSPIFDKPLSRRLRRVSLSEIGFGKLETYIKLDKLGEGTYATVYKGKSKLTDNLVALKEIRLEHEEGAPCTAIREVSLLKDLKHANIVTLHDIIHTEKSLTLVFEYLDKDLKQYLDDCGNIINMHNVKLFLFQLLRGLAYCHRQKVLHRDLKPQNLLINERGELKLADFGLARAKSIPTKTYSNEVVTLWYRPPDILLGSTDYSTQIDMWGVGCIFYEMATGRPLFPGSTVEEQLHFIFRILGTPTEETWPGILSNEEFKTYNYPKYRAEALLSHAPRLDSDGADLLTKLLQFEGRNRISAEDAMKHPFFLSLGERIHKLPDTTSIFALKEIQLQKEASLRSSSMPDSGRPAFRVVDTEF

[11] = target: Cyclin-dependent kinase 5/CDK5 activator 1 (Homo sapiens) (UniProt Q00535+Q15078); test: Residual activity of CDK5/p35NCK at 0.1 uM by microplate scintillation counting; assay type: protein-complex assay
Chain of Cyclin-dependent kinase 5/CDK5 activator 1 (Homo sapiens) (Q00535 whole entry): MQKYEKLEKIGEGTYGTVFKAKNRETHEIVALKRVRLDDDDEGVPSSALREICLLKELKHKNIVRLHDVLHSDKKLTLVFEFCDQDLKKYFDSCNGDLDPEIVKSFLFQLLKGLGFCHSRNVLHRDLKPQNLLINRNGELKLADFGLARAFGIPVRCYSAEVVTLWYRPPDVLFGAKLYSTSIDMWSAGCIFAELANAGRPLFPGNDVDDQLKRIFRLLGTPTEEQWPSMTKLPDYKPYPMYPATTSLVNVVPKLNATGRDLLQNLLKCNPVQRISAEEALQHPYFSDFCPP
Chain of Cyclin-dependent kinase 5/CDK5 activator 1 (Homo sapiens) (Q15078 99-307 partner limits assumed): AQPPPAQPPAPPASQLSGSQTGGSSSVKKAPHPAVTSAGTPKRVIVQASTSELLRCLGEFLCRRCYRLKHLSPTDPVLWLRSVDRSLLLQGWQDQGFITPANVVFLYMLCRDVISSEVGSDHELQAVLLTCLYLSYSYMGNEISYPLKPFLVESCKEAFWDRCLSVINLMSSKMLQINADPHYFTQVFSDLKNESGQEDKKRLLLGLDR

| residual activity [1] [%] | residual activity [2] [%] | residual activity [3] [%] | residual activity [4] [%] | residual activity [5] [%] | residual activity [7] [%] | residual activity [8] [%] | residual activity [9] [%] | residual activity [10] [%] | residual activity [11] [%] | Structure (SMILES) | residual activity [6] [%] |
| --- | --- | --- | --- | --- | --- | --- | --- | --- | --- | --- | --- |
| 86 | 82 | 97 | 106 | 143 | 32 | 98 | 122 | 126 | 94 | COc1cc2c(Oc3ccc(-c4nc5ccccc5s4)cc3)ncnc2cc1OCCCN1CCCC1 | 103 |
| 82 | 91 | 96 | 83 | 123 | 34 | 100 | 130 | 163 | 93 | COc1cc2c(Oc3ccc(-c4nc5ccccc5s4)cc3)ncnc2cc1OCCCN1CCN(C)CC1 | 100 |
| 90 | 98 | 115 | 81 | 127 | 30 | 46 | 135 | 153 | 83 | COc1cc2c(Oc3ccc(-c4nc5ccccc5s4)cc3F)ncnc2cc1OCCCN1CCN(C)CC1 | 96 |
